Tests used:
[1] = test system: non-transgenic soybean line A4922; experiment: Field trial of seed coatings under soil compaction / different soils, wild-type soybean; format: in vivo, Glycine max; details: for Count (emergence) / Height (total plant height): A4922
Experimental: The second trial (data reported in Tables 22-24) tested the precursors under conditions of soil compaction.
As noted above, the second trial tested the noted precursors under conditions of soil compaction. These experiments are performed in the same manner as in the first trial, except that the soil is compacted with an all-terrain vehicle.
“Height” equals total plant height in cm.

[2] = test system: wild-type soybean line A4922; experiment: Field trial of seed coating application rates, wild-type soybean
Experimental: GA3, GA3-3-acetate, GA5, GA9, and GA12 are evaluated in further field trials. […] The objectives of these tests are: 1) to determine if seed coatings, as compared to imbibition, of GA compounds facilitate rescue of constitutively GA-deficient transgenic dwarf soybeans (transgenic lines 719−2 plus 719+17) without causing elongation of wild-type soybeans (line A4922), and 2) to determine the seed treatment rate ranges for each of the selected GA compounds that would provide rescue of constitutively GA-deficient transgenic dwarf soybeans (transgenic lines 719−2 plus 719+17) without causing elongation of wild-type soybeans (line A4922).
Seeds are treated with GA3, GA5, GA9, GA12, and GA3-3-acetate at rates of 0, 0.1, 1, 10, and 100 μg/seed. These GA compounds are applied to the seeds using a Hege 11 seed treater (Hans-Ulrich Hege GmbH & Co., Waldenburg, Germany); 100% acetone is used as the carrier solvent. The amount of liquid introduced into the seed treater is six fluid ounces/100 lbs seed rate. In addition, GA12 is tested at 50 μg/seed. The untreated control (UTC) consisted of dry, untreated seeds. Seeds of constitutively GA-deficient transgenic dwarf soybean line 719 and wild-type A4922 are sown in both light and heavy soil. The planting depth is 0.5 to 1 inch (1.27 to 2.54 cm); watering is via drip irrigation. The experiment is carried out in three repetitions, using 25 seeds/plot (one five foot (152.4 cm) long row) for line 719, and 75 seeds/plot (two eight foot (243.8 cm) rows) for line A4922. Observations included total emergence, number of dwarfs not rescued, uniformity in plant height, average plant height, visual notes, and digital photos.
In all the experiments reported in Tables 17-24, treatments are replicated three times in a randomized block design. Data are analyzed using LSD (least significant difference) 0.05 probability using the PRM 5.0 Statistical Analysis Program (SAS Institute, North Carolina).

[3] = test system: AX5/antisense CPScc soybean line 46 (R2); experiment: Hilum seed treatment of epicotyl-intensive GA-deficient soybean, seedling height (FIG. 42); format: in vivo, Glycine max; details: 8 DAP
Experimental: These studies are performed on soybean plants engineered to express their GA-deficient phenotype throughout the life cycle via the use of the constitutive FMV promoter (line 719, FMV/antisense CPScc). In contrast to the constitutive FMV promoter, the peak activity of the AX5 promoter is developmentally restricted to the soybean seedling axis (epicotyl) three to five days after the start of imbibition, with limited expression beyond the seedling stage of development. Soybean lines transformed with the […] cassette therefore display an epicotyl-intensive dwarf phenotype. In these lines, inhibition of the hypocotyl is modest; most of the total height reduction in these plants is due to shortening of the epicotyl. Rescue of […] soybean plants therefore presents different technical challenges from those required for rescue of constitutively GA-deficient transgenic dwarf soybean lines containing the […] construct. […] Seed from both lines is produced from greenhouse-grown plants. […] If multiple applications are made to seeds, the previous application is allowed to dry before a subsequent application is made. […] (29° C.) day and 75° F. night (24° C.). Pots are watered as necessary by overhead hand watering. Hypocotyl and epicotyl measurements are made for each plant at various stages of plant growth. […] The results are shown in FIG. 42, where the error bar represents +/-two times the standard error of the mean (n=12-15). […] The upper dashed horizontal line represents the total height of untreated wild-type […] soybeans. Measurements are made 8 days after planting.

[4] = Heavy soil - loose, target rate 2.0 μg/seed, Table 22
[5] = Heavy soil - loose, target rate 8.0 μg/seed, Table 22
[6] = Light soil - Compacted, target rate 2.0 μg/seed, Table 22
[7] = Light soil - Compacted, target rate 8.0 μg/seed, Table 22
[8] = Light soil - Loose, target rate 2.0 μg/seed, Table 24
[9] = Light soil - Loose, target rate 8.0 μg/seed, Table 24
[10] = Light soil - Loose, target rate 16.0 μg/seed, Table 24
[11] = Light soil - compacted, target rate 2.0 μg/seed, Table 24
[12] = Light soil - compacted, target rate 8.0 μg/seed, Table 24
[13] = Light soil - compacted, target rate 16.0 μg/seed, Table 24

**Q.** For C=C1C[C@]23C[C@H]1CC[C@H]2[C@@]12CCC[C@@](C)(C(=O)O1)[C@H]2[C@@H]3C(=O)O [GA9], which “Count (emergence)” value [1, 4] is on record?
**A.** The value was 33 ab.

**Q.** What about the “Height (total plant height)” value [1, 4] of the same compound?
**A.** The value was 5.3 g·cm·days.

**Q.** And the “Count (emergence)” value [1, 5]?
**A.** The value was 29 a-d.

**Q.** What about the “Height (total plant height)” value [1, 5] of the same compound?
**A.** The value was 6.3 cde cm.

**Q.** What about the “Count (emergence)” value [1, 6] of the same compound?
**A.** Its value is 38 abc.

**Q.** What about the “Height (total plant height)” value [1, 6] of the same compound?
**A.** Its value is 5.7 def cm.

**Q.** What about the “Count (emergence)” value [1, 7] of the same compound?
**A.** The value was 22 de.

**Q.** And the “Height (total plant height)” value [1, 7]?
**A.** The value was 6.0 de cm.

**Q.** And the “Count (emergence)” value [1, 8]?
**A.** The value was 41.3 abc.

**Q.** And the “Height (total plant height)” value [1, 8]?
**A.** Its value is 5.0 gh cm.

**Q.** And the “Count (emergence)” value [1, 9]?
**A.** Its value is 39.3 bc.

**Q.** What about the “Height (total plant height)” value [1, 9] of the same compound?
**A.** The value was 7.0 ef cm.

**Q.** What about the “Count (emergence)” value [1, 10] of the same compound?
**A.** Its value is 39.0 bc.

**Q.** And the “Height (total plant height)” value [1, 10]?
**A.** Its value is 8.0 de cm.

**Q.** What about the “Count (emergence)” value [1, 11] of the same compound?
**A.** Its value is 38.0 abc.

**Q.** What about the “Height (total plant height)” value [1, 11] of the same compound?
**A.** The value was 5.7 def cm.

**Q.** What about the “Count (emergence)” value [1, 12] of the same compound?
**A.** The value was 21.7 de.

**Q.** What about the “Height (total plant height)” value [1, 12] of the same compound?
**A.** Its value is 6.0 de cm.

**Q.** What about the “Count (emergence)” value [1, 13] of the same compound?
**A.** Its value is 20.0 de.

**Q.** What about the “Height (total plant height)” value [1, 13] of the same compound?
**A.** The value was 8.3 c cm.

**Q.** And the “emergence at approximately equivalent biological response (height)” value ([1]; compacted soil, FIG. 40)?
**A.** The value was 93%.

**Q.** What about the “plant height dose/response in wild-type line A4922 (FIG. 40)” value ([1]; ten days after planting, compacted soil) of the same compound?
**A.** The value was “less active than GA3, GA3-3-acetate, and GA5”.

**Q.** And the “A4922 Height, cm, Heavy soil” value ([2]; 0.1 μg compound per seed)?
**A.** Its value is 5.7 efg cm.

**Q.** What about the “A4922 Height, cm, Light soil” value ([2]; 0.1 μg compound per seed) of the same compound?
**A.** Its value is 5.7 f-i cm.

**Q.** What about the “No. A4922 Emerged, Heavy soil” value ([2]; 0.1 μg compound per seed) of the same compound?
**A.** Its value is 41.0 a-d.

**Q.** What about the “No. A4922 Emerged, Light soil” value ([2]; 0.1 μg compound per seed) of the same compound?
**A.** The value was 48.3 b-e.

**Q.** What about the “A4922 Height, cm, Heavy soil” value ([2]; 1 μg compound per seed) of the same compound?
**A.** Its value is 6.3 efg cm.

**Q.** And the “A4922 Height, cm, Light soil” value ([2]; 1 μg compound per seed)?
**A.** The value was 6.3 fgh cm.

**Q.** And the “No. A4922 Emerged, Heavy soil” value ([2]; 1 μg compound per seed)?
**A.** Its value is 43.0 a-d.

**Q.** What about the “No. A4922 Emerged, Light soil” value ([2]; 1 μg compound per seed) of the same compound?
**A.** The value was 46.7 c-g.

**Q.** What about the “A4922 Height, cm, Heavy soil” value ([2]; 10 μg compound per seed) of the same compound?
**A.** The value was 6.7 efg cm.

**Q.** And the “A4922 Height, cm, Light soil” value ([2]; 10 μg compound per seed)?
**A.** The value was 7.3 fg·cm.

**Q.** And the “No. A4922 Emerged, Heavy soil” value ([2]; 10 μg compound per seed)?
**A.** The value was 26.3 g·days.

**Q.** And the “No. A4922 Emerged, Light soil” value ([2]; 10 μg compound per seed)?
**A.** The value was 46.0 c-h.

**Q.** What about the “A4922 Height, cm, Heavy soil” value ([2]; 100 μg compound per seed) of the same compound?
**A.** Its value is 10.3 cm·days.

**Q.** And the “No. A4922 Emerged, Heavy soil” value ([2]; 100 μg compound per seed)?
**A.** Its value is 28.3 c-g.

**Q.** And the “No. A4922 Emerged, Light soil” value ([2]; 100 μg compound per seed)?
**A.** The value was 40.0 f-i.

**Q.** And the “activity relative to GA3, GA3-3-acetate and GA5” value [3]?
**A.** Its value is “approximately ten times less active”.

**Q.** And the “effect on line 46 total height” value [3]?
**A.** The value was “rescued AX5/asCPScc soybean line 46 total height, with some hypocotyl over-elongation”.
